Details in all cases: 72 h
The subject of one experiment is MOLM-13. The procedure, abridged:
(§1)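 Fifteen myeloid leukaemia cell lines were seeded in RPMI 1640 at densities titrated to the linear growth range and placed in 384-well plates with acoustically pre-printed compounds at five tenfold doses from 1 to 10,000 nM, in duplicate. After 72 h at 37 °C with 5% CO2, luminescent ATP viability was normalised to vehicle and to a positive control at 10 µM, and curves were fitted with a four-parameter log-logistic model. The IC50 was obtained from these fits.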

For another experiment, the system named is KCL-22. The gist of the method: as §1
The test system of a further experiment is ML-2. The gist of the method: as §1
Another experiment concerns KU-812. The procedure, abridged: as §1
A further experiment has as its system THP-1. The gist of the method: as §1
The test system of a further experiment is HEL. The gist of the method:
as §1

Another experiment deals with Mono-Mac-6. The gist of the method:
as §1

A further experiment deals with SHI-1. The procedure, abridged:
as §1

For experiment [1], the system named is HL-60. The procedure, abridged: as §1
The subject of the next experiment is LAMA-84. The gist of the method: as §1
The test system of a further experiment is NOMO-1. The procedure, abridged:
as §1

In a further experiment the test system is K-562. The procedure, abridged: as §1
The next experiment relates to BV-173. The gist of the method:
as §1

The next experiment concerns KG-1. The gist of the method: as §1
A further experiment deals with MV4-11. The gist of the method:
as §1

Experiment [2] relates to HL-60. The experiment can be described thus: cell viability (% survival relative to DMSO control); higher = less cytotoxic. The procedure, abridged:
(§2)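 Area under the curve, where listed, was derived from four-parameter log-logistic fits with drc and PharmacoGx. These fits used CellTiter-Glo viability from HL-60 cells in RPMI 1640 with 10% FBS, normalised to DMSO wells and wells holding 10 μM proteasome inhibitor. The full library was rescreened on 384-well plates in duplicate at five tenfold concentrations, 1–10,000 nM, with DMSO or 100 nM of one of three metabolic inhibitors, for 72 h at 37 °C, 5% CO2.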

In experiment [3] the test system is HL-60. The experiment can be described thus: area under dose-response curve (viability, 1 nM-10 uM) (fraction (0-1)); higher = more sensitive. The gist of the method:
as §2

The mark [4] stands for this setting: 0.001 µM, co-treatment: AZD3965 100 nM.
Where [5] appears, read: 0.001 µM, co-treatment: DMSO vehicle.
Setting [6] is: 0.001 µM, co-treatment: GSK2194069 100 nM.
Where [7] appears, read: 0.001 µM, co-treatment: pictilisib 100 nM.
Setting [8] is: 0.01 µM, co-treatment: AZD3965 100 nM.
[9] abbreviates: 0.01 µM, co-treatment: DMSO vehicle.
The mark [10] stands for this setting: 0.01 µM, co-treatment: GSK2194069 100 nM.
The mark [11] stands for this setting: 0.01 µM, co-treatment: pictilisib 100 nM.
Setting [12] is: 0.1 µM, co-treatment: AZD3965 100 nM.
Setting [13] is: 0.1 µM, co-treatment: DMSO vehicle.
[14] abbreviates: 0.1 µM, co-treatment: GSK2194069 100 nM.
Where [15] appears, read: 0.1 µM, co-treatment: pictilisib 100 nM.
Where [16] appears, read: 1 µM, co-treatment: AZD3965 100 nM.
Setting [17] is: 1 µM, co-treatment: DMSO vehicle.
The mark [18] stands for this setting: 1 µM, co-treatment: GSK2194069 100 nM.
[19] abbreviates: 1 µM, co-treatment: pictilisib 100 nM.
Setting [20] is: 10 µM, co-treatment: AZD3965 100 nM.
The mark [21] stands for this setting: 10 µM, co-treatment: DMSO vehicle.
[22] abbreviates: 10 µM, co-treatment: GSK2194069 100 nM.
Where [23] appears, read: 10 µM, co-treatment: pictilisib 100 nM.
Setting [24] is: co-treatment: GSK2194069 100 nM.
The mark [25] stands for this setting: co-treatment: pictilisib 100 nM.

± gives the standard deviation of the averaged measurements.

As for `Clc1ccccc1CN1CCc2sccc2C1` [Ticlopidine], the “IC50 (cell viability)” value in the experiment on MOLM-13, with KCL-22, with ML-2, in the experiment with KU-812, in the experiment on THP-1 and in the experiment on HEL was greater than 10 µM in each case. For the same molecule, the “IC50 (cell viability)” value with Mono-Mac-6, in the experiment on SHI-1, with HL-60 [1], in the experiment on LAMA-84, with NOMO-1 and in the experiment on K-562 was greater than 10 µM in each case. Further, the “IC50 (cell viability)” value with BV-173, in the experiment on KG-1 and in the experiment on MV4-11 was greater than 10 µM each time.
In the case of `CC(C(=O)O)c1cccc(C(=O)c2ccccc2)c1` (configuration not stated) [Ketoprofen], the “IC50 (cell viability)” value in the experiment on MOLM-13, with KCL-22, in the experiment with ML-2, in the experiment with KU-812, with THP-1 and in the experiment with HEL was greater than 10 µM each time. The “IC50 (cell viability)” value in the experiment on Mono-Mac-6, in the experiment on SHI-1, in the experiment on HL-60 [1], in the experiment with LAMA-84, in the experiment on NOMO-1 and with K-562 was greater than 10 µM in each case. In addition, the “IC50 (cell viability)” value in the experiment on BV-173, with KG-1 and in the experiment on MV4-11 was greater than 10 µM in each case.
On to `Cc1c2c(=O)n(-c3ccccc3Cl)[nH]c2cc(=O)n1Cc1ccccn1`, for which the cell viability with HL-60 [2] (setting [4]) worked out at 103 ± 2.9%; with HL-60 [2] (setting [5]) it was 103 ± 1.8%; in the experiment with HL-60 [2] (setting [6]), 101 ± 3.2%; in the experiment with HL-60 [2] (setting [7]) it was 96.69 ± 0.41%; in the experiment on HL-60 [2] (setting [8]), 103 ± 4.3%; in the experiment on HL-60 [2] (setting [9]), 103 ± 1.3%. Also, the cell viability is 105 ± 5% in the experiment with HL-60 [2] (setting [10]); 103 ± 18% in the experiment with HL-60 [2] (setting [11]); 96.9 ± 3.3% with HL-60 [2] (setting [12]); 99.6 ± 8.5% with HL-60 [2] (setting [13]); 98.8 ± 5.7% in the experiment with HL-60 [2] (setting [14]); 100 ± 1.9% with HL-60 [2] (setting [15]). The cell viability in the experiment on HL-60 [2] (setting [16]) came out at 98.6 ± 5.4%; in the experiment with HL-60 [2] (setting [17]), 99.25 ± 0.98%; in the experiment on HL-60 [2] (setting [18]) it was 101 ± 6.8%; with HL-60 [2] (setting [19]), 95.2 ± 3.8%; with HL-60 [2] (setting [20]), 96.6 ± 4%; in the experiment on HL-60 [2] (setting [21]), 101 ± 8.3%. The cell viability stood at 96.5 ± 3.9% in the experiment with HL-60 [2] (setting [22]) and 94.8 ± 2.1% in the experiment on HL-60 [2] (setting [23]). In addition, the “area under dose-response curve” value with HL-60 [3] (co-treatment: AZD3965 100 nM), in the experiment on HL-60 [3] (co-treatment: DMSO vehicle), in the experiment with HL-60 [3] (setting [24]) and in the experiment with HL-60 [3] (setting [25]) was less than 0.0301 each time.
On to `CC(C(=O)O)C(=O)O` [methylmalonate], for which the cell viability was 100 ± 1.6% with HL-60 [2] (setting [4]); 97.43 ± 0.96% with HL-60 [2] (setting [5]); 101 ± 5.3% with HL-60 [2] (setting [6]); 105 ± 14% in the experiment with HL-60 [2] (setting [7]); 96.1 ± 3% in the experiment on HL-60 [2] (setting [8]); 99.6 ± 0.36% with HL-60 [2] (setting [9]). In addition, the cell viability stood at 97.9 ± 8.9% in the experiment with HL-60 [2] (setting [10]); 103 ± 6.5% with HL-60 [2] (setting [11]); 81.8 ± 19% in the experiment with HL-60 [2] (setting [12]); 96.753 ± 0.087% in the experiment with HL-60 [2] (setting [13]); 95.2 ± 10% in the experiment on HL-60 [2] (setting [14]); 87.7 ± 20% with HL-60 [2] (setting [15]). Besides, the cell viability with HL-60 [2] (setting [16]) was 107 ± 12%; with HL-60 [2] (setting [17]) it was 100.6 ± 0.51%; in the experiment on HL-60 [2] (setting [18]), 106 ± 2.2%; in the experiment on HL-60 [2] (setting [19]) it was 84.2 ± 32%; in the experiment with HL-60 [2] (setting [20]) it was 98.6 ± 5.8%; in the experiment with HL-60 [2] (setting [21]) it was 99 ± 3.8%. The values for the cell viability with HL-60 [2] (setting [22]) and in the experiment on HL-60 [2] (setting [23]) were 103.3 ± 0.24% and 108.9 ± 0.38%, respectively. The “area under dose-response curve” value in the experiment with HL-60 [3] (co-treatment: AZD3965 100 nM), with HL-60 [3] (co-treatment: DMSO vehicle), with HL-60 [3] (setting [24]) and in the experiment on HL-60 [3] (setting [25]) was less than 0.0301 in each case.
For the molecule `O=C(Nc1ccccc1)c1cc([N+](=O)[O-])ccc1Cl` [GW-9662], the cell viability in the experiment on HL-60 [2] (setting [4]) was 104 ± 4.8%; with HL-60 [2] (setting [5]), 100.8 ± 0.15%; in the experiment on HL-60 [2] (setting [6]) it was 99.4 ± 3.7%; in the experiment with HL-60 [2] (setting [7]), 106.5 ± 0.24%; in the experiment on HL-60 [2] (setting [8]), 97.15 ± 0.3%; with HL-60 [2] (setting [9]), 103.27 ± 0.069%. In addition, the cell viability in the experiment with HL-60 [2] (setting [10]) came out at 92.6 ± 11%; in the experiment on HL-60 [2] (setting [11]) it was 96.8 ± 5.1%; in the experiment with HL-60 [2] (setting [12]) it was 102 ± 3.9%; with HL-60 [2] (setting [13]) it was 100 ± 2.6%; in the experiment on HL-60 [2] (setting [14]), 98.7 ± 5.5%; in the experiment on HL-60 [2] (setting [15]) it was 97.9 ± 2.5%. Further, the cell viability was found to be 100 ± 2.4% in the experiment on HL-60 [2] (setting [16]); 100.8 ± 0.79% in the experiment with HL-60 [2] (setting [17]); 96.1 ± 1.9% in the experiment with HL-60 [2] (setting [18]); 99.3 ± 5.7% in the experiment with HL-60 [2] (setting [19]); 90.1 ± 20% in the experiment on HL-60 [2] (setting [20]); 95.6 ± 2.1% in the experiment on HL-60 [2] (setting [21]). In addition, the cell viability with HL-60 [2] (setting [22]) was 87.2 ± 8.5%; in the experiment on HL-60 [2] (setting [23]) it was 94.4 ± 16%. Further, the “area under dose-response curve” value in the experiment on HL-60 [3] (co-treatment: AZD3965 100 nM), in the experiment with HL-60 [3] (co-treatment: DMSO vehicle), in the experiment with HL-60 [3] (setting [24]) and in the experiment on HL-60 [3] (setting [25]) was less than 0.0301 in each case.

As usually defined, the cell viability is a read-out of living cells in per cent, often relative to untreated cells.
